Data reported in PubChem BioAssay (NCI).
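Step 1: Grow cells in 96-well plates. Step 2: Expose to compound for 48 hours at 5 concentrations. Step 3: Interpolate endpoints linearly; if unreached, use highest concentration. GI50 marks 50% less growth. Definition used: TGI = concentration required for complete inhibition of growth.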

Legend:
Experiment in all cases: NCI-60 cell line screen, 48 h
SF-295 CNS = system: SF-295 CNS
CCRF-CEM leukemia = system: CCRF-CEM leukemia
OVCAR-8 ovarian = system: OVCAR-8 ovarian
UACC-257 melanoma = system: UACC-257 melanoma
EKVX NSCLC = system: EKVX NSCLC
IGROV1 ovarian = system: IGROV1 ovarian
MALME-3M melanoma = system: MALME-3M melanoma
A498 renal = system: A498 renal
RPMI-8226 leukemia = system: RPMI-8226 leukemia
RXF 393 renal = system: RXF 393 renal

Row | SMILES | GI50 (SF-295 CNS) | TGI (SF-295 CNS) | GI50 (CCRF-CEM leukemia) | TGI (CCRF-CEM leukemia) | GI50 (OVCAR-8 ovarian) | TGI (OVCAR-8 ovarian) | GI50 (UACC-257 melanoma) | TGI (UACC-257 melanoma) | GI50 (EKVX NSCLC) | TGI (EKVX NSCLC) | GI50 (IGROV1 ovarian) | TGI (IGROV1 ovarian) | GI50 (MALME-3M melanoma) | TGI (MALME-3M melanoma) | GI50 (A498 renal) | TGI (A498 renal) | GI50 (RPMI-8226 leukemia) | TGI (RPMI-8226 leukemia) | GI50 (RXF 393 renal) | TGI (RXF 393 renal)
1 | COc1ccc(-c2c3c(nc4n[nH]c(-c5ccc(Cl)cc5)c24)-c2ccccc2C(=O)C3=O)cc1 | 1.9 µM | 4.32 µM | 2.55 µM | > 100 µM | 1.59 µM | 3.44 µM | 1.57 µM | 2.95 µM | 1.64 µM | 4.43 µM | 1.54 µM | 3.22 µM | 0.75 µM | 2.81 µM | 3.72 µM | 17.6 µM | 1.72 µM | 7.15 µM | 1.5 µM | 3.1 µM
2 | N#Cc1cccc(C=NC23CC4CC(CC(C4)C2)C3)c1 | – | > 100 µM | – | > 100 µM | – | > 100 µM | – | > 100 µM | – | > 100 µM | – | > 100 µM | – | > 100 µM | – | > 100 µM | – | > 100 µM | – | > 100 µM
3 | CC1=Nc2c([nH]c(=S)[nH]c2=O)NC(c2c(Cl)cccc2Cl)C1 (stereo not given) | – | 4.41 µM | – | 2.18 µM | – | 1.85 µM | – | 9.4 µM | – | 18.7 µM | – | 5.45 µM | – | 12.9 µM | – | 6.68 µM | – | 4.04 µM | – | 9.91 µM
4 | CN1CCN(c2nc(-c3csc(-c4cccs4)n3)cc3ccccc23)CC1 | 1.82 µM | 3.39 µM | 2 µM | 4.46 µM | 1.89 µM | 3.97 µM | 1.87 µM | 3.68 µM | 1.58 µM | 3.34 µM | 1.57 µM | 3.12 µM | 1.65 µM | 3.12 µM | 1.47 µM | 3.27 µM | 2.09 µM | 4.98 µM | 1.78 µM | 3.9 µM
5 | COCCOCCOCc1n(Cc2ccc3ccccc3n2)c2ccccc2[n+]1Cc1ccc2ccccc2n1 | 1.69 µM | 8.19 µM | 1.78 µM | 16 µM | 1.27 µM | 12.6 µM | 0.277 µM | 3.73 µM | 2.55 µM | 24.4 µM | 0.645 µM | 11.8 µM | 0.658 µM | 8.67 µM | 2.48 µM | 7.74 µM | 0.138 µM | 12.4 µM | 1.23 µM | 9.7 µM
6 | NC1(Cc2ccc(Cl)cc2)CCN(c2ncnc3[nH]ccc23)CC1 | 1.48 µM | 13.5 µM | 3.05 µM | 24 µM | 11.1 µM | 25.4 µM | 13.1 µM | 26.5 µM | 2.69 µM | 18.5 µM | 1.01 µM | 7.8 µM | 6.3 µM | 21.6 µM | 0.546 µM | 4.58 µM | 4.37 µM | 26.5 µM | 1.41 µM | 7.12 µM
7 | O=[N+]([O-])c1cc([N+](=O)[O-])c(Cl)cc1Cl | 1.75 µM | 3.63 µM | 0.217 µM | 0.505 µM | 1.27 µM | 2.91 µM | 0.594 µM | 2.04 µM | 1.68 µM | 3.31 µM | 1.17 µM | 2.74 µM | 2.05 µM | 4.27 µM | 1.61 µM | 4.51 µM | 0.667 µM | 2.8 µM | 1.68 µM | 3.09 µM
8 | O=C(CC1C=Cc2ccccc2N1C(=O)c1ccccc1)c1ccccc1 (stereo not given) | – | 78.1 µM | – | > 100 µM | – | > 100 µM | – | 61.3 µM | – | 47.4 µM | – | > 100 µM | – | 61 µM | – | 93.5 µM | – | 39.9 µM | – | > 100 µM
9 | C/C(=N\NC(=S)N1CCCCCC1)c1cccc2cccnc12 | – | > 21 µM | – | > 100 µM | – | > 100 µM | – | > 31.1 µM | – | > 75.3 µM | – | > 94.1 µM | – | > 61 µM | – | 54.9 µM | – | 15.3 µM | – | > 100 µM
10 | Cc1ccc(S(=O)(=O)N/N=C/C(C)C)cc1 | – | > 100 µM | – | > 100 µM | – | > 100 µM | – | > 100 µM | – | > 100 µM | – | > 100 µM | – | > 100 µM | – | > 100 µM | – | > 100 µM | – | > 100 µM
11 | CN(CCCCCl)P(=O)(OCc1ccc([N+](=O)[O-])o1)OCC1OC(n2cnc([N+](=O)[O-])c2N)C(O)C1O (stereo not given) | > 100 µM | > 100 µM | > 100 µM | > 100 µM | > 100 µM | > 100 µM | > 100 µM | > 100 µM | > 100 µM | > 100 µM | > 100 µM | > 100 µM | > 100 µM | > 100 µM | > 100 µM | > 100 µM | > 100 µM | > 100 µM | > 100 µM | > 100 µM
12 | C=C(C(=C)P(=S)(C(C)C)C(C)C)P(=S)(C(C)C)C(C)C | – | > 100 µM | – | > 100 µM | – | > 100 µM | – | > 100 µM | – | > 100 µM | – | > 100 µM | – | > 100 µM | – | > 100 µM | – | > 100 µM | – | > 100 µM
13 | CCCCCCCCCCCc1c(O)c(=O)c2c(oc3c(=O)c(CCCCCCCCCCC)c(O)c(=O)c3n2-c2ccc(N(C)C)cc2)c1=O | – | 46.2 µM | – | 60.5 µM | – | 51.5 µM | – | 40.2 µM | – | 67.7 µM | – | 48.1 µM | – | 37.9 µM | – | 36.9 µM | – | > 100 µM | – | 44.4 µM
14 | Cc1cccc2c3c(sc12)C(c1ccc(F)cc1)C(C#N)=C(N)O3 (stereo not given) | 0.0284 µM | 0.329 µM | 0.0439 µM | > 59.7 µM | 0.128 µM | 14.2 µM | 10.6 µM | 36.8 µM | 0.141 µM | 17.6 µM | 0.0744 µM | 11.2 µM | 0.08 µM | 19 µM | 0.0192 µM | 0.318 µM | 0.048 µM | 8.31 µM | 0.0271 µM | 0.0825 µM
